US20250325542A1, “INHIBITORS OF ANTIMOCROBIAL RESISTANCE AND METHOS USING SAME” (Baylor College of Medicine, priority 2022, published 2025)

Target: NDM-1 (Klebsiella pneumoniae, UniProt C7C422)
Assay: not given
Format: biochemical
Details: not given

NDM-1, sequence (C7C422 whole entry, looked up, species assumed): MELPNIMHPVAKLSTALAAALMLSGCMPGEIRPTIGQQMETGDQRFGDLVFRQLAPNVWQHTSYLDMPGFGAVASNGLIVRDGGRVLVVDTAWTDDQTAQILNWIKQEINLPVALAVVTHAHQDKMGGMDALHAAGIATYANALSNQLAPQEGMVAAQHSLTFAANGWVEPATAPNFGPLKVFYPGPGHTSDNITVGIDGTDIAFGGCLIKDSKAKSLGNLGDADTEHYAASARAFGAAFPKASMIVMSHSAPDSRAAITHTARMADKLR

Question: With NCc1cccc(N2Cc3ccc(-c4ccc(C(=O)O)c(O)c4)cc3C2)c1 [CDD-3080, 4-(2-(3-(aminomethyl)phenyl)isoindolin-5-yl)-2-hydroxybenzoic acid] as the molecule, how does the Ki read?
Answer: 43 ± 24 µM

Question: How did the Ki turn out when NCc1cccc(NCc2cc(C(=O)O)cc(-c3ccc(C(=O)O)c(O)c3)c2)c1 [CDD-2897, 5-(((3-(aminomethyl)phenyl)amino)methyl)-3′-hydroxy-[1,1′-biphenyl]-3,4′-dicarboxylic acid] was run?
Answer: 71 ± 37 µM

Question: And the “fold reduction of potency against NDM-1” value?
Answer: more than 10 fold

Question: What does the source list for Cc1cccc(NCc2cccc(-c3ccc(C(=O)O)c(O)c3)c2)c1 [CDD-2907, 3-hydroxy-3′-((m-tolylamino)methyl)-[1,1′-biphenyl]-4-carboxylic acid]?
Answer: Ki: > 100 µM; NDM-1 Ki (μM): near-complete loss of potency

Question: NCc1cccc(NCc2ccc(-c3ccc(C(=O)O)c(O)c3)s2)c1 [CDD-2600, 4-(5-(((3-(aminomethyl)phenyl)amino)methyl)thiophen-2-yl)-2-hydroxybenzoic acid] was tested. Which Ki did it give?
Answer: 1.6 ± 0.3 µM

Question: And the “fold improvement in potency against NDM-1” value?
Answer: 2 fold

Question: Which Ki does the source give for NCc1cccc(NCc2cncc(-c3ccc(C(=O)O)c(O)c3)c2)c1 [CDD-2998, 4-(5-(((3-(aminomethyl)phenyl)amino)methyl)pyridin-3-yl)-2-hydroxybenzoic acid] here?
Answer: 1.9 ± 0.6 µM

Question: With CNC(=O)CCc1ccc(CNCc2cccc(NCc3ccc(-c4ccc(C(=O)O)c(O)c4)o3)c2)cc1 [CDD-2335, 2-hydroxy-4-(5-(((3-(((4-(3-(methylamino)-3-oxopropyl)benzyl)amino)methyl)phenyl)amino)methyl)furan-2-yl)benzoic acid] as the molecule, how does the “fold reduction of potency against NDM-1” value read?
Answer: 4 fold

Question: Which Ki does the source give for NCc1cccc(NC(=O)c2cccc(-c3ccc(C(=O)O)c(O)c3)c2)c1 [CDD-2985, 3′-((3-(aminomethyl)phenyl)carbamoyl)-3-hydroxy-[1,1′-biphenyl]-4-carboxylic acid] here?
Answer: 29 ± 15 µM

Question: What does the source list for CC(=O)NCc1cccc(NCc2cccc(-c3ccc(C(=O)O)c(O)c3)c2)c1 [CDD-2919, 3′-(((3-(acetamidomethyl)phenyl)amino)methyl)-3-hydroxy-[1,1′-biphenyl]-4-carboxylic acid]?
Answer: Ki: > 100 µM; NDM-1 Ki (μM): near-complete loss of potency

Question: With CNCc1cccc(NCc2ccc(-c3ccc(C(=O)O)cc3)o2)c1 [CDD-2463, 4-(5-(((3-((methylamino)methyl)phenyl)amino)methyl)furan-2-yl)benzoic acid] as the molecule, how does the Ki read?
Answer: 8.5 µM

Question: What about the “fold reduction of potency against NDM-1” value of the same molecule?
Answer: 2.5 fold

Question: What does the source list for CNCc1ccc(-c2ccc(C(=O)O)c(O)c2)o1 [CDD-2363, 2-hydroxy-4-(5-((methylamino)methyl)furan-2-yl)benzoic acid]?
Answer: Ki: 397 ± 113 µM; NDM-1 Ki (μM): weak potency

Same assay, conditions: imipenem 40 μM, NDM-1 2 nM, 10 μM ZnSO4

Question: For CNC(=O)CCc1ccc(CNCc2cccc(NCc3ccc(-c4ccccc4CC(=O)O)cc3)c2)cc1 [CDD-2336, 2-(4′-(((3-(((4-(3-(methylamino)-3-oxopropyl)benzyl)amino)methyl)phenyl)amino)methyl)-[1,1′-biphenyl]-2-yl)acetic acid], which Ki is on record?
Answer: 144 ± 16 µM

Question: Which Ki does the source give for NCc1cncc(NCc2cccc(-c3ccc(C(=O)O)c(O)c3)c2)c1 [CDD-2975, 3′-(((5-(aminomethyl)pyridin-3-yl)amino)methyl)-3-hydroxy-[1,1′-biphenyl]-4-carboxylic acid] here?
Answer: 25 ± 14 µM

Question: How did the Ki turn out when NCc1cccc(NCc2ccnc(-c3ccc(C(=O)O)c(O)c3)c2)c1 [CDD-3060, 4-(4-(((3-(aminomethyl)phenyl)amino)methyl)pyridin-2-yl)-2-hydroxybenzoic acid] was run?
Answer: 8.1 ± 2 µM

Question: CNCc1cccc(NCc2ccc(-c3ccc(O)c(C(=O)O)c3)o2)c1 [CDD-2510, 2-hydroxy-5-(5-(((3-((methylamino)methyl)phenyl)amino)methyl)furan-2-yl)benzoic acid] was tested. Which Ki did it give?
Answer: 60 ± 10 µM

Question: Which Ki does the source give for CNC(=O)CCc1ccc(CNCc2cccc(NCc3ccc(-c4ccc(C(=O)O)c(O)c4)o3)c2)cc1 [CDD-2335, 2-hydroxy-4-(5-(((3-(((4-(3-(methylamino)-3-oxopropyl)benzyl)amino)methyl)phenyl)amino)methyl)furan-2-yl)benzoic acid] here?
Answer: 13 ± 1.5 µM

Question: How did the Ki turn out when NCc1cccc(NCc2ccc(-c3cccc(C(=O)O)c3O)o2)c1 [CDD-2567, 3-(5-(((3-(aminomethyl)phenyl)amino)methyl)furan-2-yl)-2-hydroxybenzoic acid] was run?
Answer: 24 ± 1.5 µM

Question: CNCc1cccc(NCc2cccc(-c3ccc(C(=O)O)c(O)c3)c2)c1 [CDD-2906, 3-hydroxy-3′-(((3-((methylamino)methyl)phenyl)amino)methyl)-[1,1′-biphenyl]-4-carboxylic acid] was tested. Which Ki did it give?
Answer: 11 ± 2 µM

Question: With NCc1cccc(NCc2cc(-c3ccc(C(=O)O)c(O)c3)ccn2)c1 [CDD-3059, 4-(2-(((3-(aminomethyl)phenyl)amino)methyl)pyridin-4-yl)-2-hydroxybenzoic acid] as the molecule, how does the Ki read?
Answer: 4.8 ± 0.4 µM

Question: NCc1cc(O)cc(NCc2cccc(-c3ccc(C(=O)O)c(O)c3)c2)c1 [CDD-2974, 3′-(((3-(aminomethyl)-5-hydroxyphenyl)amino)methyl)-3-hydroxy-[1,1′-biphenyl]-4-carboxylic acid] was tested. Which Ki did it give?
Answer: 3.5 ± 1.4 µM

Question: How did the Ki turn out when CNC(=O)C1CCC(C(=O)NCc2ccc(NCc3ccc(O)c(C(=O)O)c3)nc2)CC1 (stereo not drawn) [CDD-2395, 2-hydroxy-5-(((5-((4-(methylcarbamoyl)cyclohexane-1-carboxamido)methyl)pyridin-2-yl)amino)methyl)benzoic acid] was run?
Answer: 153 ± 28 µM

Question: For NCc1cccc(NCc2ccc(-c3ccc(C(=O)O)c(O)c3)cc2)c1 [CDD-2615, 4′-(((3-(aminomethyl)phenyl)amino)methyl)-3-hydroxy-[1,1′-biphenyl]-4-carboxylic acid], which Ki is on record?
Answer: 14 ± 1.1 µM

Question: With CNCc1cccc(NCc2ccc(-c3cccc(C(=O)O)c3)o2)c1 [CDD-2602, 3-(5-(((3-((methylamino)methyl)phenyl)amino)methyl)furan-2-yl)benzoic acid] as the molecule, how does the Ki read?
Answer: 46 ± 11 µM

Question: Which Ki does the source give for CNC(=O)Cc1cccc(NCc2cccc(-c3ccc(C(=O)O)c(O)c3)c2)c1 [CDD-2920, 3-hydroxy-3′-(((3-(2-(methylamino)-2-oxoethyl)phenyl)amino)methyl)-[1,1′-biphenyl]-4-carboxylic acid] here?
Answer: 87 ± 53 µM

Question: CNC(=O)CCC1CCN(C(=O)c2ccc(CNCc3ccc(O)c(C(=O)O)c3)s2)CC1 [CDD-2371, 2-hydroxy-5-((((5-(4-(3-(methylamino)-3-oxopropyl)piperidine-1-carbonyl)thiophen-2-yl)methyl)amino)methyl)benzoic acid] was tested. Which Ki did it give?
Answer: 217 ± 46 µM

Target: OXA-48 (Klebsiella pneumoniae, UniProt Q6XEC0)
Assay: biochemical
Format: biochemical
Details: not given

OXA-48, sequence (Q6XEC0 whole entry, looked up, species assumed): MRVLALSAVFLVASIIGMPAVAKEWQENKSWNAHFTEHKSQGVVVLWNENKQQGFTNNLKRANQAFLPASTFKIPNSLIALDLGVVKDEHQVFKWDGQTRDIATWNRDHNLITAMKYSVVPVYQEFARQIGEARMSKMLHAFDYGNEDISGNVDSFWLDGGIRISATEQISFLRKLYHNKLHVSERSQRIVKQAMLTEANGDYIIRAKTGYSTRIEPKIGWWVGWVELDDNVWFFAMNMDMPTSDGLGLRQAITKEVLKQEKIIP

Question: Which Ki does the source give for CNC(=O)CCc1ccc(CNc2cccc(CCCNCc3ccccc3-c3cccc(C(=O)O)c3)c2)cc1 [CDD-2819, 2′-(((3-(3-((4-(3-(methylamino)-3-oxopropyl)benzyl)amino)phenyl)propyl)amino)methyl)-[1,1′-biphenyl]-3-carboxylic acid] here?
Answer: 88 ± 4.4 µM

Question: Which Ki does the source give for COc1cc(-c2cc(O)cc(C(=O)O)c2)ccc1C(=O)O [CDD-2724, 5-hydroxy-3′-methoxy-[1,1′-biphenyl]-3,4′-dicarboxylic acid] here?
Answer: 0.63 ± 0.13 µM

Same assay, conditions: nitrocefin 30 μM, OXA-48 0.1 nM; read-out: OXA-48 Ki

Question: CN(C)C(=O)C1CCN(c2ccc(CNCc3ccccc3-c3cccc(C(=O)O)c3)cc2C#N)CC1 [CDD-2836, 2′-(((3-cyano-4-(4-(dimethylcarbamoyl)piperidin-1-yl)benzyl)amino)methyl)-[1,1′-biphenyl]-3-carboxylic acid] was tested. Which Ki did it give?
Answer: 7.6 ± 1 µM

Question: For Nc1cccc(CCCNCc2ccccc2-c2cccc(C(=O)O)c2)c1 [CDD-2820, 2′-(((3-(3-aminophenyl)propyl)amino)methyl)-[1,1′-biphenyl]-3-carboxylic acid], which Ki is on record?
Answer: 127 ± 86 µM

Same assay, conditions: relative to the related analogue named in the sentence

Question: For COc1cc(-c2cc(O)cc(C(=O)O)c2)ccc1C(=O)O [CDD-2724, 5-hydroxy-3′-methoxy-[1,1′-biphenyl]-3,4′-dicarboxylic acid], which “fold decrease in Ki / enhancement of potency against OXA-48” value is on record?
Answer: 2 fold

Target: KPC-2 (Klebsiella pneumoniae, UniProt Q9F663)
Assay: KPC-2 enzyme inhibition (Ki)
Format: biochemical
Details: not given
Text: Several hits were identified from the qDOS38_1 library against the KPC-2 enzyme. All compounds were synthesized without linker C1a. Among the hit compounds, CDD-2312 had the highest enrichment score of 5.9 but a lower count number of 115 compared to other libraries screened at the same time.

KPC-2, sequence (Q9F663 whole entry, looked up, species assumed): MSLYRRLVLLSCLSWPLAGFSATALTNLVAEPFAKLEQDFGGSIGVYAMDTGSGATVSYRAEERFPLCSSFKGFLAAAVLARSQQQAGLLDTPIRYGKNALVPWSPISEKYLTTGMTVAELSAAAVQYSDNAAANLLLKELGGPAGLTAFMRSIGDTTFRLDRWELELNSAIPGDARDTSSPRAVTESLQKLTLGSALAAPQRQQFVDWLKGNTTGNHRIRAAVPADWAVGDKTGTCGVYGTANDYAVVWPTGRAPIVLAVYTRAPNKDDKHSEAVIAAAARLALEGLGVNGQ

Question: Which Ki does the source give for CNC(=O)c1ccc(-c2cnc(NCC(=O)O)nc2)cc1F [CDD-2309, (5-(3-fluoro-4-(methylcarbamoyl)phenyl)pyrimidin-2-yl)glycine] here?
Answer: 980 ± 180 µM

Question: With CNC(=O)c1cncc(-c2cnc(NCC(=O)O)nc2)c1 [CDD-2308, (5-(5-(methylcarbamoyl)pyridin-3-yl)pyrimidin-2-yl)glycine] as the molecule, how does the Ki read?
Answer: 3580 ± 1150 µM

Question: How did the Ki turn out when CNC(=O)c1cc2cc(-c3cnc(NCC(=O)O)nc3)ccc2nc1C [CDD-2310, (5-(2-methyl-3-(methylcarbamoyl)quinolin-6-yl)pyrimidin-2-yl)glycine] was run?
Answer: 1240 ± 532 µM

Question: COc1cc(-c2cnc(NCC(=O)O)nc2)cc(C=O)c1OCC(=O)O [CDD-2311, (5-(4-(carboxymethoxy)-3-formyl-5-methoxyphenyl)pyrimidin-2-yl)glycine] was tested. Which Ki did it give?
Answer: 522 ± 113 µM

Test system: E. coli expressing NDM-1
Assay: not given
Format: cell-based
Details: comparison of imipenem MIC shifts

Question: For NCc1cccc(N2Cc3ccc(-c4ccc(C(=O)O)c(O)c4)cc3C2)c1 [CDD-3080, 4-(2-(3-(aminomethyl)phenyl)isoindolin-5-yl)-2-hydroxybenzoic acid], which synergy with imipenem is on record?
Answer: reduced synergy compared to CDD-2376 and CDD-2511

Question: How did the synergy with imipenem turn out when CNCc1cccc(NCc2ccc(-c3cccc(C(=O)O)c3O)o2)c1 [CDD-2522, 2-hydroxy-3-(5-(((3-((methylamino)methyl)phenyl)amino)methyl)furan-2-yl)benzoic acid] was run?
Answer: reduced synergy compared to CDD-2376 and CDD-2511

Question: With NCc1cccc(NC(=O)c2cccc(-c3ccc(C(=O)O)c(O)c3)c2)c1 [CDD-2985, 3′-((3-(aminomethyl)phenyl)carbamoyl)-3-hydroxy-[1,1′-biphenyl]-4-carboxylic acid] as the molecule, how does the synergy with imipenem read?
Answer: reduced synergy compared to CDD-2376 and CDD-2511
